Experimental findings from patent US8349826B2, “Oxazolidinone derivatives” (Actelion Pharmaceuticals Ltd., priority 2008, dated 2013) are described below.

In brackets after ≈: the same amount, converted by molar mass.

In the assay the test system is Moraxella catarrhalis A894. Description: MIC by broth microdilution (cation-adjusted Mueller-Hinton Broth, CLSI M7-A7). It is filed as cell-based. As for the experimental part:
Minimal inhibitory concentrations (MICS; mg/l) were determined in cation-adjusted Mueller-Hinton Broth by a microdilution procedure following the description given in “Procedures for Dilution Antimicrobial Susceptibility Tests for Bacteria that Grow Aerobically”, Approved standard, 7th ed., Clinical and Laboratory Standards Institute (CLSI) Document M7-A7, Wayne, Pa., USA, 2006. All Example compounds were tested against several Gram positive and Gram negative bacteria such as S. aureus, E. faecalis, S. pneumoniae, M. catarrhalis, A. baumanii, E. coli or P. aeruginosa.
A general note: Dilution methods test growth across graded concentrations, often in twofold steps.
For `COc1ccc2ncc(=O)n(C[C@H](O)CNC[C@@H]3CN(c4ccc5c(c4)OCCO5)C(=O)O3)c2n1` [Example 26, 4-((R)-3-{[(R)-3-(2,3-dihydro-benzo[1,4]dioxin-6-yl)-2-oxo-oxazolidin-5-ylmethyl]-amino}-2-hydroxy-propyl)-6-methoxy-4H-pyrido[2,3-b]pyrazin-3-one], the minimum inhibitory concentration (MIC) (in general, the lowest concentration found to suppress growth) worked out at 0.25 µg/mL (≈ 0.517 µM). Take `COc1ccc2ncc(=O)n(C[C@H](O)CNC[C@@H]3CN(c4ccc5c(c4)NC(=O)CO5)C(=O)O3)c2n1` [Example 27]: the “MIC Moraxella catarrhalis A894” value is given as “<=0.031 mg/l”.

For the molecule `COc1ccc2c(c1)N(CCCNC[C@@H]1CN(c3ccc4c(c3)OCCO4)C(=O)O1)C(=O)CC2` [Example 28, 1-(3-{[(R)-3-(2,3-dihydro-benzo[1,4]dioxin-6-yl)-2-oxo-oxazolidin-5-ylmethyl]-amino}-propyl)-7-methoxy-3,4-dihydro-1H-quinolin-2-one], 1 µg/mL (≈ 2.14 µM) was the least that counted as inhibitory (MIC). The same measure, in the same setting: the figure for `COc1ccc2ncc(=O)n(CCCNC[C@@H]3CN(c4ccc(C)c(F)c4)C(=O)O3)c2n1` [Example 29, 4-(3-{[(R)-3-(3-fluoro-4-methyl-phenyl)-2-oxo-oxazolidin-5-ylmethyl]-amino}-propyl)-6-methoxy-4H-pyrido[2,3-b]pyrazin-3-one] is 0.063 µg/mL (≈ 0.143 µM); for `COc1ccc2ncc(=O)n(C3CN(C[C@@H]4CN(c5ccc6c(c5)NC(=O)CS6)C(=O)O4)C3)c2n1` [Example 30, 6-methoxy-4-{1-[(R)-2-oxo-3-(3-oxo-3,4-dihydro-2H-benzo[1,4]thiazin-6-yl)-oxazolidin-5-ylmethyl]-azetidin-3-yl}-4H-pyrido[2,3-b]pyrazin-3-one] it is at most 0.016 µg/mL; for `CCOc1ccc(N2C[C@@H](CCN3CC(n4c(=O)cnc5ccc(OC)nc54)C3)OC2=O)cc1` [Example 34, 4-(1-{2-[(R)-3-(4-ethoxy-phenyl)-2-oxo-oxazolidin-5-yl]-ethyl}-azetidin-3-yl)-6-methoxy-4H-pyrido[2,3-b]pyrazin-3-one] it is 8 µg/mL (≈ 17.2 µM). Consider `COc1ccc2nc(C)c(=O)n(CCCNC[C@@H]3CN(c4ccc5c(c4)NC(=O)CS5)C(=O)O3)c2n1` [Example 35, 6-methoxy-2-methyl-4-(3-{[(R)-2-oxo-3-(3-oxo-3,4-dihydro-2H-benzo[1,4]thiazin-6-yl)-oxazolidin-5-ylmethyl]-amino}-propyl)-4H-pyrido[2,3-b]pyrazin-3-one], for which the MIC is at most 0.016 µg/mL. As to “rac-4-(2-{2-[3-(2,3-dihydro-[1,4]dioxino[2,3-b]pyridin-6-yl)-2-oxo-oxazolidin-5-yl]-ethylamino}-ethyl)-6-methoxy-4H-pyrido[2,3-b]pyrazin-3-one [Example 32]”, the “MIC Moraxella catarrhalis A894” value worked out at 1 mg/L.
